Source: US11414419B2, “Substituted purines for the treatment of neurodegenerative and mitochondrial diseases” (Mitokinin, Inc., priority 2017, dated 2022)

Key:
in vivo = details: rat; for AUC(0-inf) / AUC(0-t) / Cmax / half-life / MRT inf / Tmax: male, SD; for AUC(0-inf): AUCINF_pred; for AUC(0-t): AUClast; for half-life: HL_Lambda_z (T1/2); for MRT inf: MRTINF_pred
Method: Compounds tested were as follows: kinetin (MW=215.21); MTK-115 (MW=243.26); MTK-115D (MW=219.29); MTK-125A (MW=217.27); and MTK-63A (MW=203.24). Formulation concentrations were 0.2 mg/mL for IV delivery; 0.5 mg/mL for PO delivery. Dosing was as follows: IV: 1 mg/kg, 5 mL/kg; PO: 5 mg/kg, 10 mL/kg. Results are as follows:
Compounds were prepared in a formulation of 4% DMSO, 15% Solutol HS 15, 81% PBS and then administered to male SD rats via oral gavage at 5 mg/kg (n=3 per compound). Plasma draws were taken at 15m, 30m, 1 hr, 2 hr, 4 hr, 8 hr, and 24 hrs, then analyzed by mass spectrometry for presence of the compound. Data were then plotted, and AUC values calculated.

PINK1 = target: T1, PINK1 (Homo sapiens, UniProt Q9BXM7); assay: PINK1-specific mitophagy assay (FACS for lysosomal-positive mt-mKeima); format: cell-based
T1 construct: expressed in transfected cells; host or cells: HeLa cells, retroviral transduction; they also stably express FRB-Fis1, mt-mKeima and Parkin
T1 sequence (Q9BXM7 111-581 limits assumed): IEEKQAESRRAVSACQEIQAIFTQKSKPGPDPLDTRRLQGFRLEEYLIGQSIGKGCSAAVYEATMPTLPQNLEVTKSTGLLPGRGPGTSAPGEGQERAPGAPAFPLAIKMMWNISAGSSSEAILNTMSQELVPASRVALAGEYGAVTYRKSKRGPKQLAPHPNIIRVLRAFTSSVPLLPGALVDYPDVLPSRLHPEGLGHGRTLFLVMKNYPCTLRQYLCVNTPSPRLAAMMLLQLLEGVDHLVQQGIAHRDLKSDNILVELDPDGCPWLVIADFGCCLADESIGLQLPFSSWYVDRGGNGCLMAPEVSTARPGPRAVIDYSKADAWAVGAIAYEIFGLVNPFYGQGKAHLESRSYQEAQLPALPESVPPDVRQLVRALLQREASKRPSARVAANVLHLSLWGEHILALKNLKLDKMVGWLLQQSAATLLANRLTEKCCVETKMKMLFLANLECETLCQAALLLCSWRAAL
Description: mt-mKeima was cloned into a pCHAC-MCS-1-IRES-MCS2 vector. PINK1D110-YFP-23FKBP wild-type was cloned into pRetroQ-AcGFP-C1 at NheI/XhoI sites by Gibson assembly kit. The HA-tag was removed, and stop codon introduced. Wild-type HeLa cells stably expressing FRB-Fis1, mt-mKeima, Parkin, and wild-type PINK1D110-YFP-23FKBP were generated using retroviral transduction as described previously. Flag/HA-receptors were stably expressed in these cells by lentivirus transduction as described previously then treated with varying concentrations (see Table 2) of the experimental compounds for 5 days, followed by 1 uM rapalog for 24 h. Cells were then resuspended in sorting buffer (145 mM NaCl, 5 mM KCl, 1.8 mM CaCl2, 0.8 mM MgCl2, 10 mM HEPES, 10 mM glucose, 0.1% BSA) containing […] DAPI. Analysis was performed using Summit software (v6.2.6.16198) on a Beckman Coulter MoFlo Astrios cell sorter. Measurements of lysosomal mt-mKeima were made using dual-excitation ratiometric pH measurements at 488 (pH7) and 561 (pH4) nm lasers with 620/29 nm and 614/20 nm emission filters, respectively. For each sample, 50,000 events were collected and subsequently gated for YFP/mt-mKeima double-positive cells that were DAPI-negative. Data were analysed using FlowJo (v10, Tree Star).

[1] = test system: Parkin-expressing HeLa cells with intact wt PINK1; assay: Cytotoxicity experiments (DAPI stain, FACS); format: cell-based; details: 50 uM, 24 hrs, versus MTK-64, FIG. 6
Method: Compounds were incubated for 24 hrs at 50 uM in Parkin-expressing HeLa cells with intact wt PINK1. After 24 hrs, cells were DAPI stained according to standard protocols and assayed via FACS.

[2] = rapalog + experimental compound 12.5 uM
[3] = rapalog + experimental compound 25 uM
[4] = rapalog + experimental compound 50 uM

| Structure (SMILES) | AUC(0-inf) (in vivo; iv, 1 mg/kg) [µg·h/mL] | AUC(0-t) (in vivo; iv, 1 mg/kg) [µg·h/mL] | Cmax (in vivo; iv, 1 mg/kg) [µg/mL] | half-life (in vivo; iv, 1 mg/kg) [min] | MRT inf (in vivo; iv, 1 mg/kg) [min] | Tmax (in vivo; iv, 1 mg/kg, Tmax) [min] | Tmax (in vivo; po, 5 mg/kg) [min] | AUC(0-inf) (in vivo; po, 5 mg/kg) [µg·h/mL] | AUC(0-t) (in vivo; po, 5 mg/kg) [µg·h/mL] | Cmax (in vivo; po, 5 mg/kg) [µg/mL] | half-life (in vivo; po, 5 mg/kg) [min] | MRT inf (in vivo; po, 5 mg/kg) [min] | Tmax (in vivo; po, 5 mg/kg, Tmax) [min] | percentage of cells undergoing mitophagy (PINK1; [2]) [%] | percentage of cells undergoing mitophagy (PINK1; [3]) [%] | percentage of cells undergoing mitophagy (PINK1; [4]) [%] | oral PK, AUC versus comparator (in vivo; 5 mg/kg) | increase in activity (mitophagy) (PINK1; versus MTX-63H (hydrogen instead of methyl at R3), FIG. 5) [%] | toxicity versus mono-substituted comparator [1] |
| --- | --- | --- | --- | --- | --- | --- | --- | --- | --- | --- | --- | --- | --- | --- | --- | --- | --- | --- | --- |
| C/C=C/CNc1nc(C)nc2[nH]cnc12 [MTK-63A] | 0.36 | 0.359 | 1.14 | 7.8 | 10.2 | 4.8 | 18 | 0.305 | 0.294 | 0.305 | 97.8 | 145 | 15 |  |  |  |  |  |  |
| C/C=C/CNc1nc(C)nc2[nH]c(C)nc12 [MTK-115A] |  |  |  |  |  |  |  |  |  | 0.769 |  | 175 |  | 7.26 | 7.76 | 8.41 | substantial increase in AUC |  |  |
| c1coc(CNc2ncnc3[nH]cnc23)c1 [kinetin, reference compound] | 0.057 | 0.0568 | 0.176 | 7.2 | 10.8 | 4.8 |  | 0.13 | 0.122 |  | 64.8 | 79.2 | 15 |  |  |  |  |  |  |

Now from value to compound, other results behind:

| AUC(0-inf) (in vivo; iv, 1 mg/kg) [µg·h/mL] | AUC(0-t) (in vivo; iv, 1 mg/kg) [µg·h/mL] | Cmax (in vivo; iv, 1 mg/kg) [µg/mL] | half-life (in vivo; iv, 1 mg/kg) [min] | MRT inf (in vivo; iv, 1 mg/kg) [min] | Tmax (in vivo; iv, 1 mg/kg, Tmax) [min] | Tmax (in vivo; po, 5 mg/kg) [min] | AUC(0-inf) (in vivo; po, 5 mg/kg) [µg·h/mL] | AUC(0-t) (in vivo; po, 5 mg/kg) [µg·h/mL] | Cmax (in vivo; po, 5 mg/kg) [µg/mL] | half-life (in vivo; po, 5 mg/kg) [min] | MRT inf (in vivo; po, 5 mg/kg) [min] | Tmax (in vivo; po, 5 mg/kg, Tmax) [min] | percentage of cells undergoing mitophagy (PINK1; [2]) [%] | percentage of cells undergoing mitophagy (PINK1; [3]) [%] | percentage of cells undergoing mitophagy (PINK1; [4]) [%] | oral PK, AUC versus comparator (in vivo; 5 mg/kg) | increase in activity (mitophagy) (PINK1; versus MTX-63H (hydrogen instead of methyl at R3), FIG. 5) [%] | Structure (SMILES) | toxicity versus mono-substituted comparator [1] |
| --- | --- | --- | --- | --- | --- | --- | --- | --- | --- | --- | --- | --- | --- | --- | --- | --- | --- | --- | --- |
| 0.47 | 0.469 | 1.44 | 7.2 | 10.2 | 4.8 |  |  |  |  | 39.6 | 182 |  | 16.7 | 18.1 | 18.6 |  | ~40 | CCCCNc1nc(C)nc2[nH]c(C)nc12 [MTK-115D] |  |
|  |  | 1.85 | 23.4 | 24.6 | 4.8 |  | 5.45 | 5.3 | 1.04 | 69 | 203 | 240 | 13.4 | 16 | 18.4 |  |  | Cc1nc(NCc2ccco2)c2nc(C)[nH]c2n1 [MTK-115] | substantial decrease in toxicity |
